Experimental data reported in patent publication US10413502B2, “Cosmetic use of a peppermint extract” (LVMH RECHERCHE, priority 2015, dated 2019).

System: gap junctions between keratinocytes
Assay: Transfer of the dye lucifer yellow between keratinocytes via gap junctions
Type: cell-based
Settings: substance alone

C[C@H](NC(=O)Cc1cc(F)cc(F)c1)C(=O)N[C@H](C(=O)OC(C)(C)C)c1ccccc1 [DAPT, N—[N-(3,5-difluorophenacetyl)-L-alanyl]-S-phenylglycine t-butyl ester]
diffusion of lucifer yellow between keratinocytes (exchanges via gap junctions): greatly reduced
